Measurements published in PubChem BioAssay AID2060616 (Molecular Pharmacology Branch, DTP, NCI, 2025).
Several values for one entry are separate records, joined by “and”; a condition that tells them apart may be missing. Equal entries are not always repeated.

System: 377384-186-R-J1-PDC complex spheroid viability
Assay: Anticancer human tumor 377384-186-R-J1-PDC patient-derived pancreatic carcinoma cell line growth inhibition [CLK]
Conditions: for viability, T/C: stronger effect = lower value
From the text: A high-throughput screen of multi-cell type tumor spheroids was designed to identify active combinations of […] and targeted small molecules. Complex spheroids include a stromal component modeled by human endothelial cells (HUVEC) and fibroblasts modeled by human mesenchymal stem cells (MSCs). The concentration ranges selected for each drug and investigational agent were based upon clinically achievable concentrations if the clinical Cmax of the agent was known.
Compounds. The drugs and investigational agents: cirtuvivint (SM08502; NSC835563), CC-671 (NSC850746), vemurafenib (NSC761431), tapotoclax (NSC804041), sotorasib (NSC818433), adagrasib (NSC831453), MRTX-1133 (NSC836407), BAY2416964 (NSC825713), copanlisib (NSC816437), inavolisib (NSC800729), abemaciclib (NSC768073), osimertinib (NSC779217), entinostat (NSC756642), eltanexor (KPT-8602, NSC794443), venetoclax (NSC766270), ceralasertib (NSC777638), bortezomib (NSC756655), olaparib (NSC753686), talazoparib (NSC767125), alisertib (NSC759677), peposertib (NSC802822), gemcitabine (NSC613327), 5-fluorouracil (NSC19893), SN-38 (NSC673596), oxaliplatin (NSC266046), paclitaxel (NSC125973), and doxorubicin (NSC123127), were obtained from the National Cancer Institute (NCI) Developmental Therapeutics Program Chemical Repository. The FDA-approved anticancer drug set is available from the Developmental Therapeutics Program at https://dtp.cancer.gov/organization/dscb/obtaining/available plates.htm. […] The stock solutions were prepared in dimethyl sulfoxide (DMSO, Sigma-Aldrich, St. Louis, MO, cat. D2650), except for the platinum complexes which were prepared in saline (Quality Biological, Gaithersburg, MD, cat. 114-055-101), at 800-fold the tested concentration and stored at -70 degrees C prior to their use. All drugs and investigational agents were tested over a range starting from a high concentration at or near the clinical Cmax and decreasing in half-log increments. If the clinical Cmax for an agent had not been determined, the highest concentration tested was 10 microM.
Cell Culture. All cells were maintained in an incubator at 37 degrees C and 5% CO2 with 95% humidity. The PDC lines were cultured according to standard operating procedures established by the NCI PDMR. Briefly, all PDCs were thawed and cultured in Matrigel-coated flasks prepared with a working solution of 1X Ham's F-12 nutrient mix, without supplementation (Invitrogen, Waltham, MA, cat. 11765054), 100 U/mL penicillin-streptomycin (Invitrogen, cat. 15140122), and 2.5% Matrigel (Corning Inc., Corning, NY, cat. 354248) for the first three passages. The 947758-054-R-J2-PDC line was cultured in 6B/Colon 1A media, which includes advanced DMEM/F-12 (Thermo Fisher Scientific, cat. 12634028), 10 mM HEPES (Thermo Fisher Scientific, cat. 15630080), 1X GlutaMAX supplement (Thermo Fisher Scientific, cat. 35050061), 0.1 mg/mL primocin (InvivoGen, cat. ant-pm-2), 10% defined fetal bovine serum, heat inactivated (HyClone Laboratories Inc., cat. SH30070.03HI), 1.25 mM N-Acetyl-L-cysteine (Sigma-Aldrich, cat. A9165), 10 mM nicotinamide (Sigma-Aldrich, cat. N0636), 1X B-27 supplement (Thermo Fisher Scientific, cat. 17504044), 1X N-2 supplement (Thermo Fisher Scientific, cat. 17502048), and 10 microM Y-27632 dihydrochloride (Tocris Bioscience, cat. 1254). The 876862-298-R-J1-PDC was cultured in 6E media, which includes all 6B/Colon 1A media components plus 50% L-WRN conditioned media (ATCC, cat. CRL-3276), 50 ng/mL recombinant human EGF recombinant protein (hEGF; Thermo Fisher Scientific, cat. PHG0311), 10 ng/mL recombinant human fibroblast growth factor 10 (hGFG-10; PeproTech, cat. 100-26), 1 ng/mL recombinant human fibroblast growth factor 2 (hFGF-2; PeproTech, cat. 100-18B), and 1 µM prostaglandin E2 (PGE2; Tocris, cat. 2296). The 227483-062-R1-J1-PDC line was cultured in Panc media, containing all 6E components except hFGF-2, with the addition of 500 nM SB-431542 (Selleckchem, cat. S1067) and 10 nM gastrin (Tocris, cat. 3006). […]
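Note: spheroids exposed to agents for 7 days before reading.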
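Throughout, for viability, T/C: luminescence signal used as a stand-in for viable cells.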

C=CC(=O)Nc1cc(Nc2nccc(-c3cn(C)c4ccccc34)n2)c(OC)cc1N(C)CCN(C)C + CN1CCN(c2cc(C(=O)Nc3cc4cc(-c5cnn(C)c5)ccc4cn3)ccn2)CC1
IC50 (curve of first compound, second compound 0.0316 µM): > 300 nM
IC50 (curve of first compound, second compound 0.1 µM): > 300 nM
IC50 (curve of first compound, second compound 0.316 µM): < 0.949 nM
IC50 (curve of first compound, second compound 1 µM): < 0.949 nM
IC50 (curve of first compound, second compound 3.16 µM): < 0.949 nM
IC50 (curve of first compound, second compound 10 µM): < 0.949 nM
viability, T/C (second compound 0.0316 µM, first compound 0.000949 µM): 91.6%
viability, T/C (second compound 0.0316 µM, first compound 0.003 µM): 100%
viability, T/C (second compound 0.0316 µM, first compound 0.00949 µM): 90.7%
viability, T/C (second compound 0.0316 µM, first compound 0.03 µM): 93.6%
viability, T/C (second compound 0.0316 µM, first compound 0.0949 µM): 79.5%
viability, T/C (second compound 0.0316 µM, first compound 0.3 µM): 76.3%
viability, T/C (second compound 0.1 µM, first compound 0.000949 µM): 109%
viability, T/C (second compound 0.1 µM, first compound 0.003 µM): 99.4%
viability, T/C (second compound 0.1 µM, first compound 0.00949 µM): 83.3%
viability, T/C (second compound 0.1 µM, first compound 0.03 µM): 91.2%
viability, T/C (second compound 0.1 µM, first compound 0.0949 µM): 79.2%
viability, T/C (second compound 0.1 µM, first compound 0.3 µM): 63%
viability, T/C (second compound 0.316 µM, first compound 0.000949 µM): 26.1%
viability, T/C (second compound 0.316 µM, first compound 0.003 µM): 26.6%
viability, T/C (second compound 0.316 µM, first compound 0.00949 µM): 25.1%
viability, T/C (second compound 0.316 µM, first compound 0.03 µM): 26.5%
viability, T/C (second compound 0.316 µM, first compound 0.0949 µM): 23.7%
viability, T/C (second compound 0.316 µM, first compound 0.3 µM): 22.2%
viability, T/C (second compound 1 µM, first compound 0.000949 µM): 1.11%
viability, T/C (second compound 1 µM, first compound 0.003 µM): 1.28%
viability, T/C (second compound 1 µM, first compound 0.00949 µM): 2.15%
viability, T/C (second compound 1 µM, first compound 0.03 µM): 1.55%
viability, T/C (second compound 1 µM, first compound 0.0949 µM): 1.26%
viability, T/C (second compound 1 µM, first compound 0.3 µM): 1.63%
viability, T/C (second compound 3.16 µM, first compound 0.000949 µM): 0.48%
viability, T/C (second compound 3.16 µM, first compound 0.003 µM): 0.71%
viability, T/C (second compound 3.16 µM, first compound 0.00949 µM): 1.03%
viability, T/C (second compound 3.16 µM, first compound 0.03 µM): 0.37%
viability, T/C (second compound 3.16 µM, first compound 0.0949 µM): 0.75%
viability, T/C (second compound 3.16 µM, first compound 0.3 µM): 2.51%
viability, T/C (second compound 10 µM, first compound 0.000949 µM): 0.83%
viability, T/C (second compound 10 µM, first compound 0.003 µM): 1.36%
viability, T/C (second compound 10 µM, first compound 0.00949 µM): 1.97%
viability, T/C (second compound 10 µM, first compound 0.03 µM): 0.66%
viability, T/C (second compound 10 µM, first compound 0.0949 µM): 2.03%
viability, T/C (second compound 10 µM, first compound 0.3 µM): 0.56%

NC(=O)C(=Cn1cnc(-c2cc(C(F)(F)F)cc(C(F)(F)F)c2)n1)c1cncnc1
viability, T/C (compound 0.00949 µM): 78.2% and 92.5%
viability, T/C (compound 0.03 µM): 70.7% and 66.7%
viability, T/C (compound 0.0949 µM): 41.7% and 36.3%
viability, T/C (compound 0.3 µM): 27% and 18.9%
viability, T/C (compound 0.949 µM): 7.58% and 5.02%
viability, T/C (compound 3 µM): 3.05% and 2.18%
IC50 (curve of compound): 76 nM and 57.4 nM
